As usually defined, the IC50 is the concentration at which inhibition is half-maximal.

The values that follow come from patent US10975057B2, “6-aminopyridin-3-yl pyrazoles as modulators of RORgT” (Janssen Pharmaceutica NV, priority 2018, dated 2021).

Experiment [1] has as its system IL-17 production by CD4 T cells. The experiment can be described thus: cells. Conditions: Homo sapiens, 72 h, read-out: Human Th17 Assay, IC50 (μM). The protocol:
The human Th17 assay tests the effect of RORγt modulatory compounds on IL-17 production by CD4 T cells under conditions which favor Th17 differentiation. Total CD4^+ T cells were isolated from the peripheral blood mononuclear cells (PBMC) of healthy donors using a CD4^+ T cell isolation kit II, following the manufacturer's instructions (Miltenyi Biotec). […] 50 μL of compound at titrated concentrations in DMSO were added into each well at final DMSO concentration at 0.2%. Cells were incubated for 1 hour, then 50 μL of Th17 cell differentiation medium was added to each well. The final concentrations of antibodies and cytokines (R&D Systems) in differentiation medium were: 3×10^6/mL anti-CD3/CD28 beads (prepared using human T cell activation/expansion kit, Miltenyi Biotec), 10 μg/mL anti-IL4, 10 μg/mL anti-IFNγ, 10 ng/mL IL1β, 10 ng/mL IL23, 50 ng/mL IL6, 3 ng/mL TGFβ and 20 U/mL IL2. Cells were cultured at 37° C. and 5% CO2 for 3 days. Supernatants were collected and the accumulated IL-17 in culture was measured by using MULTI-SPOT® Cytokine Plate following manufacture's instruction (Meso Scale Discovery). The plate was read using Sector Imager 6000, and IL-17 concentration was extrapolated from the standard curve. The IC50s were determined by GraphPad.

The test system of a further experiment is obese diabetic mice. The note with it: cited from earlier work.
Experiment [2] concerns Th17-dependent learned helplessness. Conditions: mice; cited from earlier work.

For `CCn1nc(C(=O)NC[C@H]2CC[C@H](S(C)(=O)=O)CC2)c(Cl)c1-c1cnc(N[C@H](C)C(F)(F)F)cc1OC` [Example 98, 4-Chloro-1-ethyl-5-(4-methoxy-6-(((R)-1,1,1-trifluoropropan-2-yl)amino)pyridin-3-yl)-N-(((1r,4R)-4-(methylsulfonyl)cyclohexyl)methyl)-1H-pyrazole-3-carboxamide], the IC50 in experiment [1] was 0.14 µM.

On to `CCn1nc(C(=O)NC[C@]2(O)CC[C@@H](S(C)(=O)=O)CC2)c(C)c1-c1cnc(NC(C)(C)CC(F)(F)F)cc1OC(F)F` [Example 1, 5-(4-(Difluoromethoxy)-6-((4,4,4-trifluoro-2-methylbutan-2-yl)amino)pyridin-3-yl)-1-ethyl-N-(((1s,4s)-1-hydroxy-4-(methylsulfonyl)cyclohexyl)methyl)-4-methyl-1H-pyrazole-3-carboxamide], for which, in experiment [1], the IC50 was found to be 0.0066 µM.

`CCn1nc(C(=O)NC[C@]2(O)CC[C@@H](S(C)(=O)=O)CC2)c(Cl)c1-c1cnc(NC(C)(C)CC(F)(F)F)cc1OC(F)F` [Example 15, 4-Chloro-5-(4-(difluoromethoxy)-6-((4,4,4-trifluoro-2-methylbutan-2-yl)amino)pyridin-3-yl)-1-ethyl-N-(((1s,4s)-1-hydroxy-4-(methylsulfonyl)cyclohexyl)methyl)-1H-pyrazole-3-carboxamide]: the IC50 in experiment [1] is 0.0062 µM.

`CC(=O)N1CCN(Cc2ccc(-c3ccc(C(O)(C(F)(F)F)C(F)(F)F)cc3)cc2)CC1` [SR1555]: in the experiment with obese diabetic mice, the body weight result was “reduced body weight”, the fat mass result is “significant reduction in fat mass”, the food intake result is “modest reduction in food intake” and the insulin sensitivity entry was “improved insulin sensitivity”.

Take `CC(=O)Nc1nc(C)c(S(=O)(=O)Nc2ccc(C(O)(C(F)(F)F)C(F)(F)F)cc2)s1` [SR1001]: in experiment [2], the Th17-dependent learned helplessness entry was “reduced Th17-dependent learned helplessness”.

Take `CCn1nc(C(=O)NC[C@]2(O)CC[C@@H](S(C)(=O)=O)CC2)c(Cl)c1-c1cnc(NC(C)(C)CC(F)(F)F)cc1C(C)C` [Example 16, 4-Chloro-1-ethyl-N-(((1s,4s)-1-hydroxy-4-(methylsulfonyl)cyclohexyl)methyl)-5-(4-isopropyl-6-((4,4,4-trifluoro-2-methylbutan-2-yl)amino)pyridin-3-yl)-1H-pyrazole-3-carboxamide]: in experiment [1], the IC50 was determined as 0.017 µM.

As for `CCc1cc(NC(C)(C)CC(F)(F)F)ncc1-c1c(Cl)c(C(=O)NC[C@]2(O)CC[C@@H](S(C)(=O)=O)CC2)nn1CC` [Example 18, 4-Chloro-1-ethyl-5-(4-ethyl-6-((4,4,4-trifluoro-2-methylbutan-2-yl)amino)pyridin-3-yl)-N-(((1s,4s)-1-hydroxy-4-(methylsulfonyl)cyclohexyl)methyl)-1H-pyrazole-3-carboxamide], the IC50 in experiment [1] worked out at 0.0041 µM.

Turning to `CCn1nc(C(=O)NC[C@]2(O)CC[C@@H](S(C)(=O)=O)CC2)c(Cl)c1-c1cnc(NC(C)(C)CC(F)(F)F)cc1OC` [Example 79, 4-Chloro-1-ethyl-N-(((1s,4s)-1-hydroxy-4-(methylsulfonyl)cyclohexyl)methyl)-5-(4-methoxy-6-((4,4,4-trifluoro-2-methylbutan-2-yl)amino)pyridin-3-yl)-1H-pyrazole-3-carboxamide], the IC50 in experiment [1] was 0.013 µM.

For `CCn1nc(C(=O)NC[C@]2(O)CC[C@@H](S(C)(=O)=O)CC2)c(Cl)c1-c1cnc(NC(C)(C)CC(F)(F)F)cc1C(F)F` [Example 97, 4-Chloro-5-(4-(difluoromethyl)-6-((4,4,4-trifluoro-2-methylbutan-2-yl)amino)pyridin-3-yl)-1-ethyl-N-(((1s,4s)-1-hydroxy-4-(methylsulfonyl)cyclohexyl)methyl)-1H-pyrazole-3-carboxamide], the half-inhibitory concentration (IC50) in experiment [1] is 0.0033 µM.
